These molecules were tested on BaF3 BRAF-KIAA1549 fusion cells (assay: BaF3 BRAF-KIAA1549 fusion cell proliferation assay). Details: Mus musculus, BaF3, 96 h, read-out: IC50, inhibition of cell growth, BaF3-BRAF:KIAA1549 Fusion.
Format: cell-based
Experimental: Retroviral Production: The BRAF-KIAA1549 fusion mutant was subcloned into pMXs-IRES-Blasticidin (RTV-016, Cell Biolabs, San Diego, CA). […]. Briefly, HEK 293T cells were plated in Poly-D-lysine coated 6-well plate (2.5×10^5 cells per well) and incubated overnight. The next day, retroviral plasmids (1 μg of BRAF-KIAA fusion mutant, 0.32 μg of pCMV-Gag-Pol and 0.165 μg pCMV-VSV-G) were mixed in 300 μL of Optimem (31985, Life Technologies). The mixture was incubated at room temperature for 5 minutes and then added to Optimem containing transfection reagent Lipofectamine (11668, Invitrogen) and incubated for 20 minutes. The mixture was then added dropwise to HEK 293T cells. The next day the medium was replaced with fresh culture medium and retrovirus was harvested at 24 hours.
Generation of BRAF-KIAA1549 fusion stable cell line: BaF3 cells were plated in V-bottom 96 well plate (COSTAR #3894) in 80 μL of RPMI/10% FBS and 0.01 ng/mL mouse IL-3, supplemented with 8 μg/mL polybrene (4×10^4 cells/well). Cells were transduced with 20 μL of BRAF-KIAA1549 fusion viral supernatant by centrifuging for 30 minutes at 1000 rpm. Cells were placed in a 37 °C incubator overnight. Next day 100 μL of RPMI/10% FBS and 0.01 ng/mL mouse IL-3 was added. After 24 hours, 100 μL of cells were transferred to a 24 well plate containing 900 μL of RPMI/10% FBS and 15 μg/mL Blasticidin. Contents of the 24 well plate were sampled for cell viability via CellTiterGlo (Promega) over a 2-week period.
Assay for cell proliferation: BaF3 BRAF-KIAA1549 fusion cells were resuspended at 1.5×10^5 c/mL in RPMI containing 10% Heat Inactivated FBS, 1% L-glutamine and dispensed in duplicate ([…]) into 384 well plates. To determine the effect of compound on cell proliferation, BaF3 BRAF-KIAA1549 fusion cells were incubated for 96 hours in the presence of vehicle control (DMSO) or compound at varying concentrations. Inhibition of cell growth was determined by luminescent quantification (Envision by Perkin Elmer) of intracellular ATP content using CellTiterGlo (Promega), according to the protocol provided by the manufacturer. To determine the IC50 values, the vehicle-treated cells were normalized as viable cells and analyzed using the CDD Vault, Collaborative Drug Discovery, Burlingame, CA (the Levenberg-Marquardt algorithm; Levenberg, K, […]; Marquardt, D., 1963).
Table A assigns each compound a code for potency in the BaF3 BRAF-KIAA1549 fusion cell proliferation assay: A, B, C, or D. According to the code, A represents an IC50 value<20 nM; B represents an IC50 value≥20 nM and <100 nM; C represents an IC50 value≥100 nM and <500 nM; and D represents an IC50 value≥500 nM.

| IC50 [nM] | Structure (SMILES) |
| --- | --- |
| 20 to 100 | CNc1cc2ncc(-c3cc(NC(=O)c4cnc5n4CC(C(F)F)CC5)ccc3C)cc2cn1 (stereo not shown) [compound 238] |
| > 500 | CNc1cc2ncc(-c3cc(NC(=O)c4cccc5c4OC(C)C5)cnc3C)cc2cn1 (stereo not shown) [compound 239] |
| > 500 | CNc1cc2ncc(-c3cc(NC(=O)c4cnn(CC(F)(F)F)c4C)cnc3C)cc2cn1 [compound 240] |
| 100 to 500 | CNc1cc2ncc(-c3cc(NC(=O)c4noc5c4CC(C(C)(C)C)CC5)cnc3C)cc2cn1 (stereo not shown) [compound 241] |
| 20 to 100 | CNc1cc2ncc(-c3cc(NC(=O)c4cc(C(O)CC(F)(F)F)ccn4)cnc3C)cc2cn1 (stereo not shown) [compound 242] |
| 20 to 100 | CNc1cc2ncc(-c3cc(NC(=O)c4cnc5n4CC(C(F)(F)F)CC5)cnc3C)cc2cn1 (stereo not shown) [compound 243] |
| > 500 | CNc1cc2ncc(-c3cc(NC(=O)c4n[nH]c5c4CN(C)CC5)cnc3C)cc2cn1 [compound 244] |
| 20 to 100 | CNc1cc2ncc(-c3cc(NC(=O)c4noc5c4CCCCC5)cnc3C)cc2cn1 [compound 245] |
| > 500 | CNc1cc2ncc(-c3cc(NC(=O)c4noc5c4COCC5)cnc3C)cc2cn1 [compound 246] |
| 20 to 100 | CNc1cc2ncc(-c3cc(NC(=O)c4noc5c4CC(F)(F)CC5)cnc3C)cc2cn1 [compound 247] |
| 20 to 100 | CNc1cc2ncc(-c3cc(NC(=O)c4cc([C@@H](C)C(C)(F)F)ccn4)cnc3C)cc2cn1 [compound 248] |
| 20 to 100 | CNc1cc2ncc(-c3cc(NC(=O)c4cc([C@H](O)C(C)(F)F)ccn4)cnc3C)cc2cn1 [compound 249] |
| > 500 | CNCC(F)(F)c1cccc(C(=O)Nc2cnc(C)c(-c3cnc4cc(NC)ncc4c3)c2)n1 [compound 250] |
| 100 to 500 | CNc1cc2ncc(-c3cc(NC(=O)c4cnc5n4CC(C(F)F)CC5)cnc3C)cc2cn1 (stereo not shown) [compound 251] |
| 20 to 100 | CNc1cc2ncc(-c3cc(NC(=O)c4n[nH]c5c4C[C@@H]4C[C@H]54)cnc3C)cc2cn1 [compound 252] |
| 20 to 100 | CNc1cc2ncc(-c3cc(NC(=O)c4n[nH]c5c4C[C@H]4C[C@@H]54)cnc3C)cc2cn1 [compound 253] |
| 100 to 500 | CNc1cc2ncc(-c3cc(NC(=O)c4noc5c4CN(C(C)C)CC5)cnc3C)cc2cn1 [compound 254] |
| 20 to 100 | CNc1cc2ncc(-c3cc(NC(=O)c4cc(C(C)(C)C(N)=O)ccn4)ccc3C)cc2cn1 [compound 255] |
| 20 to 100 | CNc1cc2ncc(-c3cc(NC(=O)c4nccc(C(C)C)c4Cl)cnc3C)cc2cn1 [compound 256] |

| IC50 [nM] | Structure (SMILES) |
| --- | --- |
| 20 to 100 | CNc1cc2ncc(-c3cc(NC(=O)c4noc5c4CC(C)(C)CC5)cnc3C)cc2cn1 [compound 257] |
| 20 to 100 | CNc1cc2ncc(-c3cc(NC(=O)c4cnc5n4C[C@@H](C)CC5)cnc3C)cc2cn1 [compound 258] |
| 20 to 100 | CNc1cc2ncc(-c3cc(NC(=O)c4cnc5n4C[C@H](C)CC5)cnc3C)cc2cn1 [compound 259] |
| 20 to 100 | CCC(OC)c1ccnc(C(=O)Nc2cnc(C)c(-c3cnc4cc(NC)ncc4c3)c2)c1 (stereo not shown) [compound 260] |
| < 20 | CNc1cc2ncc(-c3cc(NC(=O)c4n[nH]c5c4CC(C)CC5)ccc3C)cc2cn1 (stereo not shown) [compound 261] |
| 20 to 100 | CNc1cc2ncc(-c3cc(NC(=O)c4n[nH]c5c4CCCC5(C)C)ccc3C)cc2cn1 [compound 262] |
| < 20 | CNc1cc2ncc(-c3cc(NC(=O)c4c[nH]c5ccc(C)cc45)ccc3C)cc2cn1 [compound 263] |
| 20 to 100 | CNc1cc2ncc(-c3cc(NC(=O)c4n[nH]c5c4C[C@H](C)O[C@@H]5C)ccc3C)cc2cn1 [compound 264] |
| < 20 | CNc1cc2ncc(-c3cc(NC(=O)c4cnn5c4CC(C)CC5)ccc3C)cc2cn1 (stereo not shown) [compound 265] |
| 20 to 100 | CNc1cc2ncc(-c3cc(NC(=O)c4c[nH]c5c4CC(C)CC5)ccc3C)cc2cn1 (stereo not shown) [compound 266] |
| < 20 | CNc1cc2ncc(-c3cc(NC(=O)N4CC[C@@H](CC(F)(F)F)C4)ccc3C)cc2cn1 [compound 267] |
| 100 to 500 | CNc1ncc2cc(-c3cc(NC(=O)c4ccnc(C5(F)CC5)c4)ccc3C)cnc2c1Cl [compound 269] |
| > 500 | CNc1ncc2cc(-c3cc(NC(=O)c4ccnc(C(C)(C)C#N)c4)cnc3C)cnc2c1Cl [compound 270] |
| 20 to 100 | CNc1ncc2cc(-c3cc(NC(=O)c4ccnc(C5(F)CC5)c4)ccc3C)cnc2c1C#N [compound 271] |
| 20 to 100 | CNc1cc2c(C#N)cc(-c3cc(NC(=O)c4ccnc(C5(F)CC5)c4)ccc3C)cc2cn1 [compound 272] |
| 100 to 500 | CNc1cc2c(C#N)cc(-c3cc(NC(=O)c4ccnc(C(F)(F)F)c4)ccc3C)cc2cn1 [compound 273] |
| < 20 | Cc1ncc(NC(=O)c2cc(C(F)(F)F)ccn2)cc1-c1ccc2c3c(ncc2c1)NC(=O)C3 [compound 274] |
| 20 to 100 | Cc1ccc(NC(=O)c2cc(C(C)(C)C#N)ccn2)cc1-c1ccc2c3c(ncc2c1)NC(=O)C3 [compound 275] |
| < 20 | Cc1ccc(NC(=O)c2ccnc(C(C)(C)F)c2)cc1-c1ccc2c3c(ncc2c1)NC(=O)C3 [compound 276] |

The molecules below were run on KRAS G12D patient-derived NSCLC tumor (assay: Combination with binimetinib in mice with KRAS G12D NSCLC PDX model). Details: 50 days, oral gavage; monotherapy or combination.
Format: in vivo, Nu/Nu mice
Experimental: (§1) Anti-tumor activity of a compound of the present disclosure in combination with binimetinib was investigated in mice with KRAS G12D NSCLC patient-derived xenograft (PDX) model. Nu/Nu mice implanted with KRAS G12D patient-derived NSCLC tumor were randomized to control or treatment group when the overall average tumor mean volume was 172 mm^3. Mice were administered twice daily approximately 12 hours apart with vehicle, twice daily approximately 12 hours apart with binimetinib, and once daily with the compound of the present disclosure, or the combination for 50 days by oral gavage. […] For representative results of the study, see FIG. 2.

| Structure (SMILES) | body weight loss |
| --- | --- |
| Cn1cnc2c(F)c(Nc3ccc(Br)cc3F)c(C(=O)NOCCO)cc21 [binimetinib] | No significant body weight loss |

What follows are molecules tested on A375-Luc melanoma cells (assay: Combination with binimetinib in mice with A375-Luc melanoma (BRAF V600E)). Details: 35 days, oral gavage; monotherapy or combination.
Format: in vivo, BALB/c nude mice
Experimental: as §1, with “was also” for “was”, “with melanoma cell line with BRAF V600E mutation. BALB/c nude” for “with KRAS G12D NSCLC patient-derived xenograft (PDX) model. Nu/Nu”, “with A375-Luc melanoma cells” for “with KRAS G12D patient-derived NSCLC tumor”, “was 224” for “was 172”, “for 35” for “for 50”, “FIG. 3.” for “FIG. 2.”

| Structure (SMILES) | body weight loss |
| --- | --- |
| Cn1cnc2c(F)c(Nc3ccc(Br)cc3F)c(C(=O)NOCCO)cc21 [binimetinib] | No significant body weight loss |
